In patent US20050192279A1, “Pyridazinones as antagonists of alpha4 integrins” (priority 2004, published 2005):

System: TNBS induced colitis
Experiment: Trinitrobenzenesulfonic acid (TNBS) Induced Colitis, rats
Type: in vivo, Male Wistar rats
Settings: rat
Excerpt: In Vivo Model: Trinitrobenzenesulfonic acid (TNBS) Induced Colitis The TNBS model of experimental colitis (Bobin-Dubigeon, C., Collin, X., Grimaud, N., Robert, J-M., Guillaume Le Baut, G., and Petit, J-Y. Effects of tumour necrosis factor-a synthesis inhibitors on rat trinitrobenzene sulphonic acid-induced chronic colitis. Eur. J. […] These symptomatic signs in the above—mentioned models are similar to what occur in human colitis. Male Wistar rats (200-250 g) are inoculated with 500 microliters of a solution of 10 to 20 mg of TNBS in 30% ethanol delivered intracolonically via catheter or ball-tipped gavage needle to the 8th cm from the anus. When Balb/c female mice (8-12 weeks of age) were used, the inoculation volume was 50 microliters containing 2-3 mg of TNBS in 30% ethanol delivered intracolonically via catheter or ball-tipped gavage needle to the 4th cm from the anus. During the ensuing 7 days, test animals were administered a preparation of an experimental compound. This material may be administered orally, subcutaenously or intraperitoneally, once or twice daily. At the end of this period, the animals were euthanized and their colons were collected for further analysis. Among the parameters analyzed were the length of the colon starting from the anus to the top of the cecum, the weight of the colon, the consistency of any stools found within the colon, the presence or absence of intraperitoneal adhesions on the serosal surfacr of the intestin, and the gross macroscopic appearance of the colon. […] In rats, the distal colon between the 5th and the 8th centimeter is dissected and placed in 10% neutral buffered formalin for later histological analysis. In mice, the 1st to the 4th cm was collected for histological analyses. For the following parameters—colon length, colon weight, stool consistency and appearance and macroscopic damage—a scoring system was used to describe the changes. The four scores for each animal were added to provide a Total Score. […] For the presence of blood in stool, one point was added to scores <3. […] Histological analyses of tissues consisted of staining paraffin-embedded tissue sections with hematoxylin-eosin dye. Epithelial damage scores were determined as the fraction of the tissue section showing damaged epithelium. […] Statistic analyses for these experiments performed with Graphpad Prism 4.0, using ANOVA, with Dunnets or Bonferroni's multiple comparisons test.

COc1cnn(C)c(=O)c1-c1ccc(C[C@H](NC(=O)c2c(Cl)cccc2Cl)C(=O)O)cc1 [Cpd 17]
% Inhibition of Epithelial Damage Score (10 mg/kg sc bid): −5.822% | % Inhibition of Total Macroscopic Score (10 mg/kg sc bid): −1.638% | % Inhibition of Epithelial Damage Score (30 mg/kg sc bid): 8.5% | % Inhibition of Total Macroscopic Score (30 mg/kg sc bid): −4.117%
